One assay has as its system MCF7. As to the kind of experiment: Antiproliferative activity against human MCF7 cells after 48 hrs by MTT assay. The class given is functional, cell-based. As to conditions: MCF7, 48 h.
The subject of the next assay is HCT-116. As to the kind of experiment: Antiproliferative activity against human HCT-116 cells after 48 hrs by MTT assay. The assay is classed as functional, cell-based. As to conditions: HCT-116, 48 h. On the technique in general: Tetrazolium assays rely on reduction of a dye to a coloured formazan, in cell work by metabolically active cells.
The next assay concerns HeLa. As to the kind of experiment: Antiproliferative activity against human HeLa cells after 48 hrs by MTT assay. The assay is classed as functional, cell-based.
Assay [1] has as its system HepG2. In words: Antiproliferative activity against human HepG2 cells after 48 hrs by MTT assay. The class given is functional, cell-based. As to conditions: HepG2, 48 h.
Assay [2] has as its system HepG2. As to the kind of experiment: Induction of apoptosis in human HepG2 cells assessed as live cells at 5 uM measured after 48 hrs by annexin-V and PI staining based flow cytometry (reference value: 91%). The assay is classed as functional.
For assay [3], the system named is HepG2. As to the kind of experiment: Induction of apoptosis in human HepG2 cells assessed as early apoptotic cells at 5 uM measured after 48 hrs by annexin-V and PI staining based flow cytometry (reference value: 4.11%). The class given is functional.
In assay [4] the test system is HepG2. As to the kind of experiment: Induction of apoptosis in human HepG2 cells assessed as late apoptotic cells at 5 uM measured after 48 hrs by annexin-V and PI staining based flow cytometry (reference value: 4.52%). The assay is classed as functional. (A flow cytometer gives signals particle by particle.)
Assay [5] has as its system HepG2. As to the kind of experiment: Induction of apoptosis in human HepG2 cells assessed as necrotic cells at 5 uM measured after 48 hrs by annexin-V and PI staining based flow cytometry (reference value: 0.363%). The class given is functional.
The test system of assay [6] is HepG2. As to the kind of experiment: Induction of apoptosis in human HepG2 cells assessed as live cells at 10 uM measured after 48 hrs by annexin-V and PI staining based flow cytometry (reference value: 91%). The assay is classed as functional.
For assay [7], the system named is HepG2. As to the kind of experiment: Induction of apoptosis in human HepG2 cells assessed as early apoptotic cells at 10 uM measured after 48 hrs by annexin-V and PI staining based flow cytometry (reference value: 4.11%). The assay is classed as functional.
In assay [8] the test system is HepG2. As to the kind of experiment: Induction of apoptosis in human HepG2 cells assessed as late apoptotic cells at 10 uM measured after 48 hrs by annexin-V and PI staining based flow cytometry (reference value: 4.52%). The assay is classed as functional.
In assay [9] the test system is HepG2. In words: Induction of apoptosis in human HepG2 cells assessed as necrotic cells at 10 uM measured after 48 hrs by annexin-V and PI staining based flow cytometry (reference value: 0.363%). The class given is functional.
Assay [10] deals with HepG2. As to the kind of experiment: Induction of apoptosis in human HepG2 cells assessed as live cells at 20 uM measured after 48 hrs by annexin-V and PI staining based flow cytometry (reference value: 91%). The assay is classed as functional.
The test system of assay [11] is HepG2. As to the kind of experiment: Induction of apoptosis in human HepG2 cells assessed as early apoptotic cells at 20 uM measured after 48 hrs by annexin-V and PI staining based flow cytometry (reference value: 4.11%). The class given is functional.
Assay [12] relates to HepG2. As to the kind of experiment: Induction of apoptosis in human HepG2 cells assessed as late apoptotic cells at 20 uM measured after 48 hrs by annexin-V and PI staining based flow cytometry (reference value: 4.52%). The class given is functional.
Assay [13] relates to HepG2. In words: Induction of apoptosis in human HepG2 cells assessed as necrotic cells at 20 uM measured after 48 hrs by annexin-V and PI staining based flow cytometry (reference value: 0.363%). The assay is classed as functional.
Assay [14] relates to HepG2. In words: Cell cycle arrest in human HepG2 cells assessed as number of cells at G1 phase at 5 uM after 48 hrs by flow cytometry (reference value: 57.68%). The class given is functional.
Assay [15] concerns HepG2. In words: Cell cycle arrest in human HepG2 cells assessed as number of cells at S phase at 5 uM after 48 hrs by flow cytometry (reference value: 24.31%). The assay is classed as functional.
Assay [16] has as its system HepG2. In words: Cell cycle arrest in human HepG2 cells assessed as number of cells at G2 phase at 5 uM after 48 hrs by flow cytometry (reference value: 16.28%). The class given is functional.
Assay [17] has as its system HepG2. In words: Cell cycle arrest in human HepG2 cells assessed as number of cells at G1 phase at 10 uM after 48 hrs by flow cytometry (reference value: 57.68%). The assay is classed as functional.
The subject of assay [18] is HepG2. In words: Cell cycle arrest in human HepG2 cells assessed as number of cells at S phase at 10 uM after 48 hrs by flow cytometry (reference value: 24.31%). The class given is functional.
For assay [19], the system named is HepG2. As to the kind of experiment: Cell cycle arrest in human HepG2 cells assessed as number of cells at G2 phase at 10 uM after 48 hrs by flow cytometry (reference value: 16.28%). The assay is classed as functional.
Assay [20] has as its system HepG2. In words: Cell cycle arrest in human HepG2 cells assessed as number of cells at G1 phase at 20 uM after 48 hrs by flow cytometry (reference value: 57.68%). The class given is functional.
The test system of assay [21] is HepG2. As to the kind of experiment: Cell cycle arrest in human HepG2 cells assessed as number of cells at S phase at 20 uM after 48 hrs by flow cytometry (reference value: 24.31%). The assay is classed as functional.
For assay [22], the system named is HepG2. As to the kind of experiment: Cell cycle arrest in human HepG2 cells assessed as number of cells at G2 phase at 20 uM after 48 hrs by flow cytometry (reference value: 16.28%). The assay is classed as functional.

In general, IC50 refers to the concentration that inhibits the measured activity by half. Read a high IC50 as weaker potency.

Take `CC(=O)OC[C@H]1O[C@@H](O[C@H]2CC[C@@]3(C)C(=CC[C@]4(O)[C@@H]3C[C@@H](OC(=O)/C=C/c3ccccc3)[C@@]3(C)[C@]4(O)CC[C@@]3(O)[C@H](C)OC(=O)c3cccnc3)C2)[C@H](OC(C)=O)[C@@H](OC(C)=O)[C@H]1OC(C)=O`: the IC50 with MCF7 is 24.5 µM; in the assay on HCT-116, 7.11 µM; in the assay with HeLa, 20.7 µM; with HepG2 [1], 8.49 µM.
The matching figures for `CC(=O)N[C@H]1[C@H](O[C@H]2CC[C@@]3(C)C(=CC[C@]4(O)[C@@H]3C[C@@H](OC(=O)/C=C(\C)C(C)C)[C@@]3(C)[C@]4(O)CC[C@@]3(O)C(C)=O)C2)O[C@H](COC(C)=O)[C@@H](OC(C)=O)[C@@H]1OC(C)=O`: 21.1 µM, 17.3 µM, 23.8 µM and 5.5 µM.
`CC(=O)O[C@@H]1[C@@H](OC(C)=O)[C@H](O[C@H]2CC[C@@]3(C)C(=CC[C@]4(O)[C@@H]3C[C@@H](OC(=O)/C=C/c3ccccc3)[C@@]3(C)[C@]4(O)CC[C@@]3(O)[C@H](C)OC(=O)c3cccnc3)C2)OC[C@H]1OC(C)=O`: the IC50 with MCF7 was > 100 µM; in the assay on HCT-116 it was 63.6 µM; with HeLa it was > 100 µM; with HepG2 [1] it was 70.1 µM.
On to `C[C@H](OC(=O)c1cccnc1)[C@]1(O)CC[C@@]2(O)[C@]1(C)[C@H](OC(=O)/C=C/c1ccccc1)C[C@@H]1[C@@]3(C)CC[C@H](O)CC3=CC[C@]12O` [GAGAMININ], for which the IC50 with MCF7 is > 100 µM; in the assay on HCT-116 it was 69.9 µM; in the assay on HeLa, 96.4 µM; with HepG2 [1], 65 µM.
The matching figures for `CC(=O)O[C@@H]1[C@@H](OC(C)=O)[C@H](C)O[C@@H](O[C@H]2CC[C@@]3(C)C(=CC[C@]4(O)[C@@H]3C[C@@H](OC(=O)/C=C(\C)C(C)C)[C@@]3(C)[C@]4(O)CC[C@@]3(O)C(C)=O)C2)[C@@H]1OC(C)=O`: 95 µM, 26.1 µM, > 100 µM and 72.8 µM.
The corresponding values for `CC(=O)O[C@@H]1[C@@H](OC(C)=O)[C@H](O[C@H]2CC[C@@]3(C)C(=CC[C@]4(O)[C@@H]3C[C@@H](OC(=O)c3ccc(O)cc3)[C@@]3(C)[C@]4(O)CC[C@@]3(O)C(C)=O)C2)OC[C@H]1OC(C)=O` are 55.4 µM, 35.3 µM, 60.8 µM and 28.5 µM.
For the compound `CC(=O)OC[C@@H]1O[C@H](O[C@H]2CC[C@@]3(C)C(=CC[C@]4(O)[C@@H]3C[C@@H](OC(=O)/C=C(\C)C(C)C)[C@@]3(C)[C@]4(O)CC[C@@]3(O)C(C)=O)C2)[C@@H](OC(C)=O)[C@H](OC(C)=O)[C@H]1OC(C)=O`, the IC50 was 9.04 µM in the assay on MCF7, 5.64 µM in the assay with HCT-116, 7.6 µM with HeLa and 3.11 µM with HepG2 [1]. For the same compound, the Activity in the assay with HepG2 [2] was 83.5%; with HepG2 [3], 11.3%; in the assay on HepG2 [4], 5.07%; with HepG2 [5], 0.068%; with HepG2 [6], 57%; in the assay with HepG2 [7], 35.6%. Further, the Activity in the assay on HepG2 [8] was determined as 7.26%; in the assay on HepG2 [9] it was 0.096%; in the assay with HepG2 [10], 18%; in the assay with HepG2 [11], 76.5%; with HepG2 [12], 5.34%; in the assay on HepG2 [13], 0.184%. Further, the Activity stood at 51.38% in the assay on HepG2 [14]; 28.72% in the assay on HepG2 [15]; 16.95% in the assay with HepG2 [16]; 46.89% in the assay with HepG2 [17]; 34.6% in the assay with HepG2 [18]; 15.75% in the assay on HepG2 [19]. Moreover, the results for the Activity with HepG2 [20], in the assay with HepG2 [21] and in the assay on HepG2 [22] were 41.76%, 38.82% and 15.99%, respectively.
As for `CC(=O)OC[C@H]1O[C@@H](O[C@H]2CC[C@@]3(C)C(=CC[C@]4(O)[C@@H]3C[C@@H](OC(=O)/C=C(\C)C(C)C)[C@@]3(C)[C@]4(O)CC[C@@]3(O)C(C)=O)C2)[C@H](OC(C)=O)[C@@H](OC(C)=O)[C@@H]1OC(C)=O`, the IC50 is 93.4 µM in the assay with MCF7, 26.6 µM in the assay on HCT-116, > 100 µM in the assay on HeLa and 65.8 µM in the assay on HepG2 [1].
The corresponding values for `CC(=O)[C@]1(O)CC[C@@]2(O)[C@]1(C)[C@H](OC(=O)c1ccc(O)cc1)C[C@@H]1[C@@]3(C)CC[C@H](O[C@@H]4O[C@H](CO)[C@@H](O)[C@H](O)[C@H]4O)CC3=CC[C@]12O` are 92.6 µM, 75.1 µM, 95.5 µM and 65.3 µM.
The matching figures for `CC(=O)[C@]1(O)CC[C@@]2(O)[C@]1(C)[C@H](OC(=O)c1ccc(O)cc1)C[C@@H]1[C@@]3(C)CC[C@H](O)CC3=CC[C@]12O`: 83.1 µM, 73 µM, > 100 µM and 79.1 µM.
The matching figures for `CC(=O)[C@]1(O)CC[C@@]2(O)[C@]1(C)[C@H](OC(=O)/C=C(\C)C(C)C)C[C@@H]1[C@@]3(C)CC[C@H](O[C@@H]4OC[C@@H](O)[C@H](O)[C@H]4O)CC3=CC[C@]12O`: 95.9 µM, 90.9 µM, > 100 µM and 90.9 µM.
Turning to `CC(=O)O[C@@H]1[C@@H](O[C@H]2CC[C@@]3(C)C(=CC[C@]4(O)[C@@H]3C[C@@H](OC(=O)/C=C(\C)C(C)C)[C@@]3(C)[C@]4(O)CC[C@@]3(O)C(C)=O)C2)OC[C@H](OC(C)=O)[C@@H]1OC(C)=O`, the IC50 with MCF7 came out at 24.5 µM; in the assay on HCT-116, 15.9 µM; with HeLa, 18.1 µM; with HepG2 [1], 6.85 µM.
In the case of `CC(=O)[C@]1(O)CC[C@@]2(O)[C@]1(C)[C@H](OC(=O)c1ccc(O)cc1)C[C@@H]1[C@@]3(C)CC[C@H](O[C@@H]4O[C@H](CO)[C@H](O)[C@H](O)[C@H]4O)CC3=CC[C@]12O`, the IC50 in the assay on MCF7 stood at 20.9 µM; in the assay on HCT-116 it was 27.3 µM; in the assay on HeLa, 25.1 µM; with HepG2 [1], 23.7 µM.
The corresponding values for `CC(=O)[C@]1(O)CC[C@@]2(O)[C@]1(C)[C@H](OC(=O)/C=C(\C)C(C)C)C[C@@H]1[C@@]3(C)CC[C@H](O[C@H]4OC[C@H](O)[C@H](O)[C@@H]4O)CC3=CC[C@]12O` are > 100 µM, 72.1 µM, > 100 µM and 51.8 µM.

The values are drawn from ChEMBL document CHEMBL5143557, “Synthesis and biological evaluation of 3β-O-neoglycosides of caudatin and its analogues as potential anticancer agents” (Bioorg Med Chem, 2022).
